{"source": "patent US11549123B2", "about": "“Plant EPSP synthases and methods of use” (PIONEER HI-BRED INTERNATIONAL, INC., priority 2015, dated 2023)", "type_in_all_cases": "biochemical", "key": {"[1]": {"target": "T1, Zea mays EPSPS variant Zm-H6 (868-H6) (Zea mays, UniProt O24566, A1R/A3W/A415G/A71Q/D401G/E301S/E390G/G101A/I207L/K83R/L97C/T278A/T360S/T440Q/V437R)", "T1 sequence (O24566 with tags, fused parts or gaps A1R/A3W/A71Q/K83R/L97C/G101A/I207L/T278A/E301S/T360S/E390G/D401G/A415G/V437R/T440Q)": "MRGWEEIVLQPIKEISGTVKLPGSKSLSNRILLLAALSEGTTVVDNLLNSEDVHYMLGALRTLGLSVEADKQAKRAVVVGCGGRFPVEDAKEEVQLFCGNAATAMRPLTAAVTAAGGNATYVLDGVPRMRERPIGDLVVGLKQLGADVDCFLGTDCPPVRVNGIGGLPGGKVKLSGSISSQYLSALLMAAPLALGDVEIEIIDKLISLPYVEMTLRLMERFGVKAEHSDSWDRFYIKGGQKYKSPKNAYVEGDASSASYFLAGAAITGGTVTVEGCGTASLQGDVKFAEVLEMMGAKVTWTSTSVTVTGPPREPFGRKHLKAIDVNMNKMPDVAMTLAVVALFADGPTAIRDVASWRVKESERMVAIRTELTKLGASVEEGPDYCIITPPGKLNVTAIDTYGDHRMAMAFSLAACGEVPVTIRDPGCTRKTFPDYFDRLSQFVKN", "experiment": "Rapid two-rate method for (kcat/KM)*KI, Zm-H6", "conditions": "[E] 0.07 uM, [Gly] 1000 uM", "from_the_text": "(§1) In the Michaelis-Menten equation for steady state reaction velocity with competitive inhibition, the term (kcat/KM)*KI cannot be isolated due to the KM and [S] terms in the denominator. However, if two rate measurements are made at different inhibitor concentrations, those terms can be eliminated by subtraction and (kcat/KM)*KI isolated, as follows:\n(§2) [formula] where v0 and v1 are initial velocities without and with inhibitor but at the same substrate and enzyme concentrations. Although Equations 2 and 3 are equally valid, to generate the data in Table 1, rate measurement was performed with and without inhibitor using Equation 3. Source of Reagents, Enzyme and Variants\n(§3) EPSPS activity was determined by quantifying the phosphate generated by the reaction. Release of phosphate was coupled to reaction with MESG, catalyzed by purine-nucleoside phosphorylase, using standard methods. The absorbance change that occurs was monitored continuously at 360 nm, where the extinction is 11,200 M-1 cm-1, with a Spectramax plate reader (Molecular Devices). […] The enzyme concentration was adjusted so as to generate sufficient signal without exceeding the limit for linear initial reaction rates. […]\n(§4) There are several practical considerations for accurately estimating (kcat/KM)*KI with the rapid method. […] Conditions can be set so that variants with a pre-determined minimal fitness level are accurately quantified. […]"}, "[2]": {"target": "T2, Zea mays EPSPS variant Zm-H6 (868-H6) with H54E (H6-H54E) (Zea mays, UniProt O24566, A1R/A3W/A415G/A71Q/D401G/E301S/E390G/G101A/H53E/I207L/K83R/L97C/T278A/T360S/T440Q/V437R)", "T2 construct": "868-H6 plus H54E; E. coli BL21(DE3), Ni-NTA purified", "T2 sequence (O24566 with tags, fused parts or gaps A1R/A3W/H53E/A71Q/K83R/L97C/G101A/I207L/T278A/E301S/T360S/E390G/D401G/A415G/V437R/T440Q)": "T1 sequence (O24566 with tags, fused parts or gaps A1R/A3W/A71Q/K83R/L97C/G101A/I207L/T278A/E301S/T360S/E390G/D401G/A415G/V437R/T440Q) with H54E", "experiment": "Rapid two-rate method for (kcat/KM)*KI, H6-H54E", "conditions": "[E] 0.07 uM, [Gly] 1000 uM", "from_the_text": "There are several practical considerations for accurately estimating (kcat/KM)*KI with the rapid method. […] 2) The inhibitor concentration must be adjusted so as to obtain a degree of inhibition that minimally amplifies the error in the term v0-vi in Equation 3. If inhibition is too little, v0-vi will be small, and the error in the multiplier vi×v0/(v0-vi) will be large. […] 3) Substrate concentration should be set at the approximate KM of the parental variant(s), subject to the sensitivity of the assay. High substrate concentration obscures sensitivity to the inhibitor and reduces stringency for capturing improvements in KM. Depending on the necessity for speed, there exists opportunity for customizing enzyme and inhibitor concentrations. […] The rapid method was repeated for those and obtained data that correlated better with data obtained by substrate saturation analysis. For screening purposes however, that correlation step is not necessary. Conditions can be set so that variants with a pre-determined minimal fitness level are accurately quantified.\nIn Table 15, parameters above the heavy line for the rapid method were obtained under standard conditions. For variants shown below the heavy line, the rapid analysis was repeated with enzyme or glyphosate concentrations adjusted as needed to generate sufficient signal within the limits for linear initial rates."}, "[3]": {"target": "T3, Zea mays EPSPS, native, SEQ ID NO:2 (Zea mays, UniProt O24566)", "T3 construct": "E. coli BL21(DE3), Ni-NTA purified", "T3 sequence (O24566 with tags, fused parts or gaps)": "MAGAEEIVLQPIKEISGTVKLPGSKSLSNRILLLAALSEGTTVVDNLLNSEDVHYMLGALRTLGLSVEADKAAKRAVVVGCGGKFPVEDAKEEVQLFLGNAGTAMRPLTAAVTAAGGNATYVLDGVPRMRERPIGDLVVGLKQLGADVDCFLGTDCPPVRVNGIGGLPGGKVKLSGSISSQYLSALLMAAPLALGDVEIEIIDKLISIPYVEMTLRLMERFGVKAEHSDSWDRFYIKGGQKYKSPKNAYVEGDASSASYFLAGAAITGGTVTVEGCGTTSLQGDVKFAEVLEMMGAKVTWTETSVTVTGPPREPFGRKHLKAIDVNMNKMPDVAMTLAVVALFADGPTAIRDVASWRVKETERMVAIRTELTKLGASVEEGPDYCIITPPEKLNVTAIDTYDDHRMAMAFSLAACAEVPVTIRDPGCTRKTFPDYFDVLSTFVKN", "experiment": "Rapid two-rate method for (kcat/KM)*KI (30 uM PEP, with or without 1 mM glyphosate), native maize", "conditions": "Zm native, [E] 0.007 uM, [Gly] 0.5 uM", "from_the_text": "as §1, §2, §3, §4"}}, "note": "Substitutions are numbered along the chain they refer to.", "data": [{"compound": "O=C(O)CNCP(=O)(O)O", "note": "[glyphosate, N-phosphonomethylglycine]", "values": [{"measurement": "(kcat/KM)*KI", "setting": "[1]", "result": 4013}, {"measurement": "(kcat/KM)*KI", "setting": "[2]", "result": 4529}, {"measurement": "(kcat/KM)*KI", "setting": "[3]", "result": 11}]}]}
